Results published in patent US20050112573A1, “Method of detecting toxic substance” (priority 2001, published 2005).

Test system: yeast genes (level of expressed mRNA)
Assay: DNA chip analysis of expressed mRNA of yeast genes after 2 h culture with a toxic chemical substance
Type: cell-based, Saccharomyces cerevisiae S288C
Conditions: for The level of expressed mRNA in the presence of chemical substance/ (ratio to absence of chemical substance): stress protein genes, DNA chip; for The level of expressed mRNA in the presence of chemical substance/ in its absence, gene YPR184W: yeast gene YPR184W
Summary of the method: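 S. cerevisiae S288C grown at 25° C in YPD; toxicant added at log phase at growth-inhibitory, non-lethal levels for 2 h, untreated cells as control. Poly(A) mRNA reverse-transcribed with Cy3/Cy5-dUTP, hybridized to whole-genome chip at 65° C >12 h; value is fluorescence ratio versus untreated.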

## C=CC=O [(14), acrolein]
Yeast gene YNL006W
  The level of expressed mRNA in the presence of chemical substance/The level of expressed mRNA in the absence of chemical substance: 0.8
Yeast gene YNL007C
  The level of expressed mRNA in the presence of chemical substance/The level of expressed mRNA in the absence of chemical substance: 0.4
Yeast gene YNL025C, ratio of DNA chip fluorescence intensity to that without chemical substance
  The level of expressed mRNA in the presence of chemical substance/ (in its absence), gene YNL025C: 1.2
Yeast gene YNL064C
  The level of expressed mRNA in the presence of chemical substance/ (ratio to absence of chemical substance): 0.8
Yeast gene YNL073W, mitochondria-located protein genes, 2 h culture with chemical
  The level of expressed mRNA in the presence of chemical substance/ (ratio to absence), gene YNL073W: 0.7
Yeast gene YNL093W
  The level of expressed mRNA in the presence of chemical substance/The level of expressed mRNA in the absence of chemical substance: 1.1
Yeast gene YNL192W, ratio of DNA chip fluorescence intensity to that without chemical substance
  The level of expressed mRNA in the presence of chemical substance/ (in its absence), gene YNL192W: 0.7
Yeast gene YNL333W
  The level of expressed mRNA in the presence of chemical substance/The level of expressed mRNA in the absence of chemical substance: 1.9
Yeast gene YNR010W
  The level of expressed mRNA in the presence of chemical substance/The level of expressed mRNA in the absence of chemical substance: 1.3
Yeast gene YNR069C
  The level of expressed mRNA in the presence of chemical substance/The level of expressed mRNA in the absence of chemical substance: 2.1
Yeast gene YNR072W, ratio of DNA chip fluorescence intensity to that without chemical substance
  The level of expressed mRNA in the presence of chemical substance/ (in its absence), gene YNR072W: 1.0
Yeast gene YNR076W
  The level of expressed mRNA in the presence of chemical substance/ (ratio to absence of chemical substance): 0.8
Yeast gene YOL013C
  The level of expressed mRNA in the presence of chemical substance/The level of expressed mRNA in the absence of chemical substance: 0.9
Yeast gene YOL096C, mitochondria-located protein genes, 2 h culture with chemical
  The level of expressed mRNA in the presence of chemical substance/ (ratio to absence), gene YOL096C: 1.4
Yeast gene YOL096C, ratio of DNA chip fluorescence intensity to that without chemical substance
  The level of expressed mRNA in the presence of chemical substance/ (in its absence), gene YOL096C: 1.4
Yeast gene YOL108C, ratio of DNA chip fluorescence intensity to that without chemical substance
  The level of expressed mRNA in the presence of chemical substance/ (in its absence), gene YOL108C: 0.9
Yeast gene YOL116W, ratio of DNA chip fluorescence intensity to that without chemical substance
  The level of expressed mRNA in the presence of chemical substance/ (in its absence), gene YOL116W: 0.9
Yeast gene YOL161C
  The level of expressed mRNA in the presence of chemical substance/ (ratio to absence of chemical substance): 0.9
Yeast gene YOL164W
  The level of expressed mRNA in the presence of chemical substance/The level of expressed mRNA in the absence of chemical substance: 1.3
Yeast gene YOR008C
  The level of expressed mRNA in the presence of chemical substance/ (ratio to absence of chemical substance): 0.9
Yeast gene YOR009W
  The level of expressed mRNA in the presence of chemical substance/ (ratio to absence of chemical substance): 0.7
Yeast gene YOR010C
  The level of expressed mRNA in the presence of chemical substance/ (ratio to absence of chemical substance): 0.4
Yeast gene YOR036W
  The level of expressed mRNA in the presence of chemical substance/The level of expressed mRNA in the absence of chemical substance: 1.2
Yeast gene YOR103C, ratio of DNA chip fluorescence intensity to that without chemical substance
  The level of expressed mRNA in the presence of chemical substance/ (in its absence), gene YOR103C: 1.2
Yeast gene YOR117W
  The level of expressed mRNA in the presence of chemical substance/The level of expressed mRNA in the absence of chemical substance: 1.0
Yeast gene YOR124C
  The level of expressed mRNA in the presence of chemical substance/The level of expressed mRNA in the absence of chemical substance: 0.8
Yeast gene YOR132W
  The level of expressed mRNA in the presence of chemical substance/The level of expressed mRNA in the absence of chemical substance: 0.7
Yeast gene YOR157C
  The level of expressed mRNA in the presence of chemical substance/The level of expressed mRNA in the absence of chemical substance: 2.2
Yeast gene YOR180C, ratio of DNA chip fluorescence intensity to that without chemical substance
  The level of expressed mRNA in the presence of chemical substance/ (in its absence), gene YOR180C: 1.0
Yeast gene YOR181W
  The level of expressed mRNA in the presence of chemical substance/The level of expressed mRNA in the absence of chemical substance: 0.9
Yeast gene YOR185C
  The level of expressed mRNA in the presence of chemical substance/The level of expressed mRNA in the absence of chemical substance: 2.1
Yeast gene YOR198C
  The level of expressed mRNA in the presence of chemical substance/The level of expressed mRNA in the absence of chemical substance: 1.1
Yeast gene YOR251C, ratio of DNA chip fluorescence intensity to that without chemical substance
  The level of expressed mRNA in the presence of chemical substance/ (in its absence), gene YOR251C: 1.1
Yeast gene YOR259C
  The level of expressed mRNA in the presence of chemical substance/The level of expressed mRNA in the absence of chemical substance: 1.2
Yeast gene YOR261C
  The level of expressed mRNA in the presence of chemical substance/The level of expressed mRNA in the absence of chemical substance: 1.8
Yeast gene YOR288C
  The level of expressed mRNA in the presence of chemical substance/The level of expressed mRNA in the absence of chemical substance: 0.8
Yeast gene YOR316C, mitochondria-located protein genes, 2 h culture with chemical
  The level of expressed mRNA in the presence of chemical substance/ (ratio to absence), gene YOR316C: 1.0
Yeast gene YOR348C, ratio of DNA chip fluorescence intensity to that without chemical substance
  The level of expressed mRNA in the presence of chemical substance/ (in its absence), gene YOR348C: 1.2
Yeast gene YOR355W
  The level of expressed mRNA in the presence of chemical substance/The level of expressed mRNA in the absence of chemical substance: 0.6
Yeast gene YOR363C, ratio of DNA chip fluorescence intensity to that without chemical substance
  The level of expressed mRNA in the presence of chemical substance/ (in its absence), gene YOR363C: 0.9
Yeast gene YOR383C
  The level of expressed mRNA in the presence of chemical substance/The level of expressed mRNA in the absence of chemical substance: 0.6
Yeast gene YPL040C, mitochondria-located protein genes, 2 h culture with chemical
  The level of expressed mRNA in the presence of chemical substance/ (ratio to absence), gene YPL040C: 1.1
Yeast gene YPL059W
  The level of expressed mRNA in the presence of chemical substance/ (ratio to absence of chemical substance): 1.3
Yeast gene YPL089C
  The level of expressed mRNA in the presence of chemical substance/The level of expressed mRNA in the absence of chemical substance: 0.8
Yeast gene YPL109C
  The level of expressed mRNA in the presence of chemical substance/The level of expressed mRNA in the absence of chemical substance: 1.3
Yeast gene YPL134C, mitochondria-located protein genes, 2 h culture with chemical
  The level of expressed mRNA in the presence of chemical substance/ (ratio to absence), gene YPL134C: 1.4
Yeast gene YPL140C
  The level of expressed mRNA in the presence of chemical substance/ (ratio to absence of chemical substance): 1.1
Yeast gene YPL148C, ratio of DNA chip fluorescence intensity to that without chemical substance
  The level of expressed mRNA in the presence of chemical substance/ (in its absence), gene YPL148C: 1.6
Yeast gene YPL149W
  The level of expressed mRNA in the presence of chemical substance/The level of expressed mRNA in the absence of chemical substance: 1.0
Yeast gene YPL154C
  The level of expressed mRNA in the presence of chemical substance/The level of expressed mRNA in the absence of chemical substance: 0.8
Yeast gene YPL194W
  The level of expressed mRNA in the presence of chemical substance/ (ratio to absence of chemical substance): 1.1
Yeast gene YPR005C
  The level of expressed mRNA in the presence of chemical substance/ (ratio to absence of chemical substance): 1.3
Yeast gene YPR103W
  The level of expressed mRNA in the presence of chemical substance/The level of expressed mRNA in the absence of chemical substance: 1.8
Yeast gene YPR108W
  The level of expressed mRNA in the presence of chemical substance/The level of expressed mRNA in the absence of chemical substance: 1.0
Yeast gene YPR165W, ratio of DNA chip fluorescence intensity to that without chemical substance
  The level of expressed mRNA in the presence of chemical substance/ (in its absence), gene YPR165W: 1.0
Energy system protein genes, 2 h culture with the chemical, ratio to control without chemical
  The level of expressed mRNA in the presence of chemical substance/ in its absence, gene YPR184W: 1.3
Ratio of DNA chip fluorescence intensity to that without chemical substance
  The level of expressed mRNA in the presence of chemical substance/ in its absence, gene YPR184W: 1.3
